# Data: patent publication US20050153894A1, “p21 peptides” (Cyclacel Limited, priority 1999, published 2005)
# Entries after “also recorded” stand apart in the source; their conditions may differ. Where two headings read alike, the source gives them in different places. Square brackets hold non-standard residues; d marks the D form. Ends that are not written are not given here. βLeu = beta-Leu
# How the values were obtained:
# CDK4/Cyclin D1 [1] = target: T1, CDK4/Cyclin D1 (Homo sapiens, UniProt P24385); experiment: CDK4/Cyclin D1 kinase assay, phosphorylation of GST-Rb; format: biochemical
# T1 construct: made in house; host or cells: CDK4: Sf9 insect cells (baculovirus)
# Experimental: (§1) The phosphorylation reaction mixture (total volume 40 μl) consisted of 50 mM HEPES pH 7.4, 20 mM MgCl2, 5 mM EGTA, 2 mM DTT, 20 mM β-glycerophosphate, 2 mM NaF, 1 mM Na3VO4, Protease Inhibitors Cocktail (Sigma, see above), BSA 0.5 mg/ml, 1 μg purified enzyme complex, 10 μl of GST-Rb-Sepharose beads, 100 μM ATP, 0.2 μCi ^32P-ATP. The reaction was carried out for 30 min at 30° C. at constant shaking. At the end of this period 100 μl of 50 mM HEPES, pH 7.4 and 1 mM ATP were added to each well and the total volume was transferred onto GFC filtered plate. The plate was washed 5 times with 200 μl of 50 mM HEPES, pH 7.4 and 1 mM ATP. To each well were added 50 μl scintillant liquid and the radioactivity of the samples was measured on Scintilation counter (Topcount, HP). The IC50 values of different peptides were calculated using GraFit software.
# Peptides were synthesized as described above. Cyclin D1 was expressed in E coli BL21(DE3) using PET expression vector and purified from the inclusion bodies. After refolding Cyclin D1 was cross-linked on SulfoLink agarose support (PIERCE). CDK4-6×His was expressed in Sf9 insect cells infected with the appropriate baculovirus construct and purified by metal-affinity chromatography (Quiagen). […] CDK4/Cyclin D1 phosphorilation of Rb was determined by incorporation of radio-labeled phosphate in GST-Rb in 96-well format kinase assay. […] The reaction was carried out for 30 min at 30 C at constant shaking. The GST-Rb-Sepharose beads were washed with 50 mM HEPES and 1 mM ATP and the radioactivity was measured on Scintillation counter (Topcount, HP)
# Cyclin D1 [2] = target: T2, Cyclin D1 (Homo sapiens, UniProt P24385); experiment: Competitive Cyclin D1 binding assay (ELISA), immobilised biotinylated p21 (149-159); settings: for IC50: immobilised p21 (149-159) peptide
# T2 construct: made in house
# Excerpt: The amount of bound Cyclin D1/Cyclin A was immunodetected and quantified by Turbo-ELISA reagent (PIERCE).
# The next important question was if these peptides share the same kinase inhibitory mechanism (bind to the same Cyclin docking site).
# CDK2/Cyclin E [3] = target: T3, CDK2/Cyclin E (Homo sapiens, UniProt P24864); experiment: CDK2/Cyclin E kinase assay, phosphorylation of GST-Rb; format: biochemical
# T3 construct: 6xHis; made in house; host or cells: Sf9 insect cells (baculovirus co-expression)
# Experimental: as §1
# CDK2/cyclin A [4] = target: T4, CDK2/cyclin A (Homo sapiens, UniProt P20248); experiment: Functional kinase assay, CDK2/cyclin A phosphorylation of GST-pRb(773-928); format: biochemical; settings: read-out: Inhibitory activity IC50 ± SD, Functional kinase assay
# Experimental: Reactions were stopped on ice, followed by addition of 5 μL/well of glutathione-Sepharose 4B (Amersham Biosciences) and further incubation with shaking for 30 min at room temperature. The mixtures were then filtered on Whatman GF/C filterplates and washed 4 times with 0.2 mL/well of 50 mM HEPES containing 1 mM ATP. Plates were dried, sealed, and scintillant (Microscint 40) was added. Incorporated radioactivity was measured using a scintillation counter (TopCount, Packard Instruments, Pangbourne, Berks, UK). Half-maximal inhibition (IC50) was calculated from dose-response curves.
# CDK1/Cyclin B [5] = target: T5, CDK1/Cyclin B (Homo sapiens, UniProt P14635); experiment: CDK1/Cyclin B kinase assay, phosphorylation of Histone 1; format: biochemical; settings: for IC50: CDK1-Cyclin B induced phosphorylation of Histone 1
# T5 construct: 6xHis; made in house; host or cells: Sf9 insect cells (baculovirus co-expression)
# Experimental: (§2) Histone 1 phosphorylation induced by CDK2/Cyclin E and CDK1/Cyclin B was measured using similar method. The concentration of Histone 1 in the kinase reaction was 1 mg/ml (unless different stated).
# CDK1/Cyclin B [6] = target: T5, CDK1/Cyclin B; experiment: CDK1/Cyclin B kinase assay, phosphorylation of GST-Rb; format: biochemical; settings: CDK1-Cyclin B induced phosphorylation of GST-Rb
# Experimental: as §1
# CDK2 = CDK2 (Homo sapiens, UniProt P24941); experiment: Pull-down with immobilised biotinylated peptide: CDK2; format: binding; settings: in the absence of cyclin partner
# Excerpt: (§3) A biotinylated version of p21(149-159) was used in “pull-down” experiments with the purified CDK sub-units, CDK2, CDK4, cyclin A, cyclin D1, and with the complexes of CDK2/cyclin A or CDK4/cyclin D1 kinases, in order to determine the binding partner of the peptide. The biotinylated peptide was pre-immobilised on streptavidin-agarose beads. […] Both CDK2 and CDK4 were “pulled down”, however, with biotinylated p21(149-159)-streptavidin-agarose beads when they were in a complex with cyclin A or cyclin D1, respectively. Similar results were obtained with cyclin E and CDK2/cyclin E complex. […] Such a method may be utilised either alone or together with a candidate substance to identify cyclin binding moities and/or inhibitors of cyclin-CDK interaction.
# Cyclin D1 [7] = target: T2, Cyclin D1; experiment: Pull-down with immobilised biotinylated peptide: cyclin D1; format: binding; settings: biotinylated peptide on streptavidin-agarose beads
# Excerpt: as §3
# Cyclin A [8] = target: T6, Cyclin A (Homo sapiens, UniProt P20248); experiment: Pull-down with immobilised biotinylated peptide: cyclin A; format: binding; settings: biotinylated peptide on streptavidin-agarose beads
# Excerpt: as §3
# CDK4 = target: T7, CDK4 (Homo sapiens, UniProt P11802); experiment: Pull-down with immobilised biotinylated peptide: CDK4; format: binding; settings: in the absence of cyclin partner
# T7 construct: 6xHis; made in house; host or cells: Sf9 insect cells (baculovirus)
# Excerpt: as §3
# CDK2/Cyclin E [9] = target: T3, CDK2/Cyclin E; experiment: CDK2/Cyclin E kinase assay, phosphorylation of Histone 1; format: biochemical
# Experimental: as §2
# cyclin B = cyclin B (Homo sapiens, UniProt P14635); experiment: Pull-down with immobilised peptide: cyclin B; format: binding
# CDK2/cyclin A [10] = target: T4, CDK2/cyclin A; experiment: CDK2/cyclin A kinase assay, substrate pRb(773-928); format: biochemical; settings: relative to H-His-Ala-Lys-Arg-Arg-Leu-Ile-Phe-NH2 (=1), pRb substrate, [ATP] = 100 μM
# Excerpt: Reactions were stopped on ice, followed by filtration through p81 filterplates (Whatman Polyfiltronics, Kent, UK).
# Cyclin A [11] = target: T6, Cyclin A; experiment: Cyclin A binding assay, immobilised biotinyl-Ahx-[…]NH2; settings: relative to H-His-Ala-Lys-Arg-Arg-Leu-Ile-Phe-NH2 (=1)
# CDK4/Cyclin D1 [12] = target: T1, CDK4/Cyclin D1; settings: WO97/42222 and Ball et al., cited from earlier work
# CDK2/Cyclin E [13] = target: T3, CDK2/Cyclin E; settings: GST-Rb phosphorylation; Ball et al.; cited from earlier work
# [14] = GST-pRb substrate, [ATP] = 100 μM
# T5 sequence (P14635 whole entry): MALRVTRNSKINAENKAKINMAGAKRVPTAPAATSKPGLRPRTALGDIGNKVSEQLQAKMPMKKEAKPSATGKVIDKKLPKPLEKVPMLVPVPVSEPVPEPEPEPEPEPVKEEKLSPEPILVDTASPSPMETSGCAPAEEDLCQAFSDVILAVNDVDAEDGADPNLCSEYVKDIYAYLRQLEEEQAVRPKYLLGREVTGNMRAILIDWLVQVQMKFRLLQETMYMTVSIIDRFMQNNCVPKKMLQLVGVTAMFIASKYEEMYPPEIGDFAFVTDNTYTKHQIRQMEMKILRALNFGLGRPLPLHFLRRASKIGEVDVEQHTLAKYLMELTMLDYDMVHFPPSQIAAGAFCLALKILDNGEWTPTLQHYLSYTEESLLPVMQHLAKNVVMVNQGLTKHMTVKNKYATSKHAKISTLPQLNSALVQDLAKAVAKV
# T5 sequence (P06493 whole entry partner): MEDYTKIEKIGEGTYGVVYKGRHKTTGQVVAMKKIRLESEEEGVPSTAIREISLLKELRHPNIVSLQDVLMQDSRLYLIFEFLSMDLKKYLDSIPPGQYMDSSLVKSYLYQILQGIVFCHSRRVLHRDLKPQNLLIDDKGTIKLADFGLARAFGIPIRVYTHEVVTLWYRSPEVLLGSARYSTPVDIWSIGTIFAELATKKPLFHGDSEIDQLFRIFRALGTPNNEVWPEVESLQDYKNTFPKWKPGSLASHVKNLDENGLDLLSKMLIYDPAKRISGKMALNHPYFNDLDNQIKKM
# T6 sequence (P20248 whole entry): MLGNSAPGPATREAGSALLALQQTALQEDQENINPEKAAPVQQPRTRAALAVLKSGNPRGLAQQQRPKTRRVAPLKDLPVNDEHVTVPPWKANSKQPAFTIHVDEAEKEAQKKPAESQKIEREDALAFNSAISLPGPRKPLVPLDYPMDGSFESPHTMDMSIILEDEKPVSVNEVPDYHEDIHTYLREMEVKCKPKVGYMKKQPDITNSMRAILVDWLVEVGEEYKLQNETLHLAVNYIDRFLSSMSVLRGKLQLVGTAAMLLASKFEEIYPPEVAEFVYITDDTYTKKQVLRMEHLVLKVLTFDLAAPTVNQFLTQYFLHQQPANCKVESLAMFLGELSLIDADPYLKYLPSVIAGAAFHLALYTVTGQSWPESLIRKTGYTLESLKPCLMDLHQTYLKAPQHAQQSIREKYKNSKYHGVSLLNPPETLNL
# T1 sequence (P24385 whole entry): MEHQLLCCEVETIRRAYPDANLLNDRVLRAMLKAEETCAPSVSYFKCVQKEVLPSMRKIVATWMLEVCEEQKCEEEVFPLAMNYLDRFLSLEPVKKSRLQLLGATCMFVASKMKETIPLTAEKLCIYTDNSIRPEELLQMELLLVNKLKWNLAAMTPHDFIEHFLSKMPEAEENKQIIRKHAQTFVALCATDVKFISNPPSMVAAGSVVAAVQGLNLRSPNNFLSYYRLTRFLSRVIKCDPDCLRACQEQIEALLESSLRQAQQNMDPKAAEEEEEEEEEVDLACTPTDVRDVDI
# T1 sequence (P11802 whole entry partner): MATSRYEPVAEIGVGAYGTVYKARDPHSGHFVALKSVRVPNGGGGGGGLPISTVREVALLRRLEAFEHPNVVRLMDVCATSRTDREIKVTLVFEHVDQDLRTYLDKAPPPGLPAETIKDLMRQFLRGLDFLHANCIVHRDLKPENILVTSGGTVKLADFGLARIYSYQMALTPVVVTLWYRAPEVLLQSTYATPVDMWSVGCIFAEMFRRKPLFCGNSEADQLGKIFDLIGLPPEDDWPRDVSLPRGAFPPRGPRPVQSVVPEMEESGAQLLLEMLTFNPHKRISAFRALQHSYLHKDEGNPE
# T2 sequence (P24385 whole entry): as the sequence (P24385 whole entry) above
# Chain of cyclin B (P14635 whole entry): as the sequence (P14635 whole entry) above
# T7 sequence (P11802 whole entry, species assumed): as the sequence (P11802 whole entry partner) above
compound,measurement,setting,value
CC(C)C[C@H](NC(=O)[C@H](CC(=O)O)NC(=O)[C@H](CC(C)C)NC(=O)[C@H](CCCNC(=N)N)NC(=O)[C@H](CCCNC(=N)N)NC(=O)[C@H](CCCCN)NC(=O)[C@H](CO)NC(=O)[C@@H](N)Cc1c[nH]cn1)C(N)=O,"inhibition of CDK4/Cyclin D1 phosphorylation of GST-Rb, in words",CDK4/Cyclin D1 [1],not able to inhibit
same,Kinase Inhibition Cyclin D1/CDK4 % Inhibition,CDK4/Cyclin D1 [1]; phosphorylation of pRb,24%
same,"competition with Biotin-DFYHSKRRLIF for binding to Cyclin D1, in words",Cyclin D1 [2],not able
same,IC50,Cyclin D1 [2],> 200 µM
same,Kinase Inhibition Cyclin E/CDK2 % Inhibition,CDK2/Cyclin E [3]; phosphorylation of pRb,74%
CC(C)C[C@H](NC(=O)[C@H](CCCNC(=N)N)NC(=O)[C@H](CCCNC(=N)N)NC(=O)[C@H](CCCCN)NC(=O)[C@H](CO)NC(=O)[C@@H](N)Cc1c[nH]cn1)C(=O)N[C@@H](Cc1ccccc1)C(=O)NCC(N)=O,IC50,Cyclin D1 [2],> 200 µM
"CC[C@H](NC(=O)[C@H](C)NC(=O)[C@@H](N)CO)C(=O)N[C@@H](CCCNC(=N)N)C(=O)N[C@@H](CC(N)=O)C(=O)N[C@@H](CC(C)C)C(=O)N[C@@H](Cc1ccccc1)C(=O)NCC(N)=O [SEQ ID NO. 41, H-Ser-Ala-Abu-Arg-Asn-Leu-Phe-Gly-NH2]",IC50,Cyclin D1 [2],> 200 µM
CC(=O)N[C@@H](CC(C)C)C(=O)N[C@@H](CC(N)=O)C(=O)N[C@@H](Cc1ccc(F)cc1)C(N)=O [VI.42],IC50,CDK2/cyclin A [4],139 ± 10 µM
CC[C@H](C)[C@H](NC(=O)[C@H](CC(C)C)NC(=O)[C@H](CCCNC(=N)N)NC(=O)[C@H](CCCNC(=N)N)NC(=O)[C@H](CCCCN)NC(=O)[C@H](C)NC(=O)[C@H](Cc1c[nH]cn1)NC(=O)[C@H](Cc1ccc(O)cc1)NC(=O)[C@H](Cc1ccccc1)NC(=O)[C@@H](N)CC(=O)O)C(=O)N[C@@H](Cc1ccccc1)C(=O)N[C@@H](CO)C(N)=O [p21(149-160)Ser153Ala],IC50,CDK1/Cyclin B [5],> 200 µM
same,IC50,"CDK2/Cyclin E [3]; read-out: IC50, CDK2-Cyclin E induced phosphorylation of GST-Rb",0.04 µM
same,IC50,CDK1/Cyclin B [6],> 200 µM
CC(C)C[C@H](NC(=O)[C@H](CC(=O)O)NC(=O)[C@H](CC(C)C)NC(=O)[C@H](CCCNC(=N)N)NC(=O)[C@H](CCCNC(=N)N)NC(=O)[C@H](CCCCN)NC(=O)[C@@H](NC(=O)[C@@H]1CCCN1)C(C)C)C(N)=O [reference compound],"inhibition of CDK4/Cyclin D1 phosphorylation of GST-Rb, in words",CDK4/Cyclin D1 [1],not able to inhibit
same,Kinase Inhibition Cyclin D1/CDK4 % Inhibition,CDK4/Cyclin D1 [1]; phosphorylation of pRb,58%
same,IC50,"CDK4/Cyclin D1 [1]; phosphorylation of pRb, read-out: Kinase Inhibition Cyclin D1/CDK4 IC50",99 µM
same,"competition with Biotin-DFYHSKRRLIF for binding to Cyclin D1, in words",Cyclin D1 [2],not able
same,IC50,Cyclin D1 [2],> 100 µM
same,Kinase Inhibition Cyclin E/CDK2 % Inhibition,CDK2/Cyclin E [3]; phosphorylation of pRb,74%
same,IC50,"CDK2/Cyclin E [3]; phosphorylation of pRb, read-out: Kinase Inhibition Cyclin E/CDK2 IC50",2.1 µM
H-DFYHSKRRLIF-NH2 [p21(149-159)],binding to CDK2 in pull-down,CDK2,failed to interact
same,binding to cyclin D1 in pull-down,Cyclin D1 [7],bound
same,binding to cyclin A in pull-down,Cyclin A [8],bound
same,binding to CDK4 in pull-down,CDK4,failed to interact
same,IC50,CDK1/Cyclin B [6],> 200 µM
H-DFYHSKRRLIFS-NH2 [p21(149-160)],"inhibition of CDK4/Cyclin D1 phosphorylation of GST-Rb, in words",CDK4/Cyclin D1 [1],very similar activity
same,inhibition at 100 µM,CDK4/Cyclin D1 [1]; [14],70%
same,"inhibition of CDK2/Cyclin E phosphorylation of Histone 1, in words",CDK2/Cyclin E [9],completely inactive; also recorded: did not inhibit
same,"inhibition of CDK2/Cyclin E phosphorylation of Histone 1, in words",CDK2/Cyclin E [9]; listed as p21 (149-160),do not inhibit
same,"inhibition of CDK1/cyclin B phosphorylation of histone H1, in words",CDK1/Cyclin B [5],did not have any significant effect
same,IC50,CDK1/Cyclin B [5],> 200 µM
same,pull-down of cyclin B (monomer or complex with CDK1),cyclin B,unable to precipitate
same,"inhibition of CDK2/Cyclin E phosphorylation of GST-Rb, in words",CDK2/Cyclin E [3],specifically inhibit
same,IC50,CDK1/Cyclin B [6],> 200 µM
H-HAKRRLIF-NH2,IC50,Cyclin D1 [2],13 µM
HAKRRLIY-NH2,Relative activity Kinase Inhibition,CDK2/cyclin A [10]; Phe159 substitutions,0.3
same,Relative activity Cyclin A Binding,Cyclin A [11]; Phe159 substitutions,0.2
HAKRRLLF-NH2,Relative activity Kinase Inhibition,CDK2/cyclin A [10]; Ile158 substitutions,1.2
same,Relative activity Cyclin A Binding,Cyclin A [11]; Ile158 substitutions,0.6
KRRLIFSK [reference compound],concentration for inhibitory activity against cyclin D1-CDK4 relative to parent p21(141-160),CDK4/Cyclin D1 [12],1000 times
same,Kinase Inhibition Cyclin D1/CDK4 % Inhibition,CDK4/Cyclin D1 [1]; [14],20%
same,Kinase Inhibition Cyclin E/CDK2 % Inhibition,CDK2/Cyclin E [3]; [14],60%
same,Kinase Inhibition Cyclin E/CDK2 IC30,CDK2/Cyclin E [3]; [14],>200 µM
VI.38 (Ac-RR[βLeu]F-NH2),IC50,"CDK2/cyclin A [4]; recombinant human CDK2/cyclin A, GST-pRb(773-928) substrate, 30 min at 30° C",216 µM
"p21(141-160): 20-residue peptide derived from the C-terminus of p21^WAF1 (residues 141-160), Ball et al.",IC50,"CDK4/Cyclin D1 [12]; Asp149Ala effect said not reproducible, read-out: IC50, cyclin D1-CDK4 inhibition",0.1 µM
same,activity against cyclinD1/CDK4 relative to cyclinE/CDK2,CDK2/Cyclin E [13],40 times
